Data taken from article PMC10352165, “Miniaturized method for the quantification of persistent organic pollutants and their metabolites in HepG2 cells: assessment of their biotransformation” (Analytical and Bioanalytical Chemistry, 2023).
Converted amounts (≈) assume the structure as drawn. Where two headings read alike, the source gives them in different places.

Key:
HepG2 cells [1] = test: Biotransformation experiment in HepG2 (concentration in cells and exposure medium); conditions: for Biotransformation ratio between metabolites and PHE, cells / Biotransformation ratio between metabolites and PHE, medium: HepG2, 15 mg·L^−1 PHE; for Biotransformation ratio between metabolites and BDE-47, cells / Biotransformation ratio between metabolites and BDE-47, medium: HepG2, 20 mg·L^−1 BDE-47, 48 h; for Concentration in medium, t = 0 h: contaminated medium at time 0, 20 mg·L^−1 BDE-47 nominal; for Concentration in medium, no cells: contaminated medium without cells, 20 mg·L^−1 BDE-47, 48 h
[2] = at 40 °C; cited from earlier work
HepG2 cells [3] = test: Plastic and glass plate exposure test (loss and cell uptake of compound); assay type: in vitro ADME
Method: Exposure of HepG2 cells (3 replicates) was performed by initially seeding approximately 2·10^6 cells in glass P100 plates and being incubated for 24 h at 37 °C (5% CO2) with 10 mL of DMEM supplemented with 10% FBS. […] The nominal exposure concentration was estimated by the previous MTT viability study, in which, more than 70% of the cells were alive at the end of the test (lethal concentration 30, LC30) to ensure good metabolizing capacity. Part of the contaminated medium was stored to determine the concentration at time 0 of exposure (“t = 0 h”). In addition, to consider possible analyte loss, a plate of control cells without pollutant (“blank”) and a plate with contaminated medium without cells (“no cells”) were incubated under the same conditions. […] Since the determination of PHE is carried out by LC-FL and its metabolites by GC–MS, the cell pellet was divided in half for each analysis. For this purpose, the adherent cells were lifted in suspension by trypsinization, and the total volume of the homogenous cell suspension was divided in half. Then, the resulting cell pellet from each fraction was collected by centrifuging at 1500 rpm for 5 min and removing the medium. However, for the determination of BDE-47 and its metabolites, the complete pellet obtained is analyzed because a simultaneous extraction is performed for both analyses. The obtained pellet was dried under a gentle stream of nitrogen, weighed on a precision analytical balance (± 0.00001 g), and stored at − 4 °C until analysis. Three independent assays were carried out with the same conditions, each with 3 replicates (plates) of the same concentration.
A major problem in in vitro cell assays is the loss of compound during the exposure process to estimate the effective concentration available to the cell and to correctly assess the toxicity and metabolization kinetics of POPs, as most of them are hydrophobic and semi-volatile. Firstly, when concentration was determined in the exposure and no cells medium samples at the end of the test (48 h) using plastic Petri dishes, a loss of 89% and 84% compared to the t = 0 h sample was found in the cells and no cells sample respectively (Table 1). This loss, similar to that found in previous studies, is mainly explained by absorption into polystyrene, the main component of in vitro culture plates or evaporation processes because these compounds have a Henry law constant (KH) between 1 and 10 Pa·m^3·mol^−1 [11] (7.90 Pa·m^3·mol^−1 for PHE at 35 °C [13] and 3.78 Pa·m^3·mol^−1 for BDE-47 at 40 °C [40]). The remaining concentration in the medium that had not been lost by evaporation or absorbed into the cells was retained in the protein serum. […] A fraction dissolved in the medium accessible to the cells of 3.5% for anthracene (log Kow 4.5) was obtained introducing the conditions of this work into the chemical partitioning model developed by Fischer et al.. […] Therefore, it should be considered to avoid the use of plastic in tests that requires P100 plates with a very high surface area/volume ratio of the medium when studying neutral chemicals with a log Kow > 3, as is the case of PHE (log Kow 4.46 [39]) and BDE-47 (log Kow 6.81 [26]).
Using glass plates, a loss of 47% and 26% for cells and no cells samples, respectively, was found at the end of the assay (48 h) (Table 1), and the concentration absorbed by the cells increased from 4 ± 1 to 18 ± 3%. For BDE-47, a loss of only 14% because of volatilization and an absorbed concentration of 24 ± 2% resulted using a glass plate, as BDE-47 is less volatile and more hydrophobic than PHE, favoring cell uptake. Birch et al. calculated a cell-free fraction of 13% for PHE in HepG2 cells with 10% of FBS in the medium considering the evaporation losses using glass vials. […]

HepG2 = conditions: HepG2, BDE-47, cited from earlier work
HepG2 cells [4] = test: MTT cell viability assay; assay type: cell-based; conditions: HepG2, 48 h of exposure, MTT, polynomial fitting
Method: (§1) Cell viability was determined by MTT assay. First, 10,000 cells/well were cultured in 96-well plates for 24 h at 37 °C and 5% CO2. After that time, the culture medium was replaced with a culture medium containing different concentrations (0–70 mg·L^−1) of PHE and BDE-47 for 48 h of exposure under the same incubated conditions. After that, 20 μL MTT solution (5 mg·mL^−1 diluted in PBS) was added and incubated for the following 4 h. Viable cellular metabolic reduction of MTT produced formazan crystals, which were dissolved in 100 μL sterile DMSO and quantified with absorbance measurement at 595 nm in a Multiskan Sky High ([…] Thermo Fisher). The cell viability was estimated by using Eq. (1). 1 %Viability=Aexp-Ablank/Acontrol-Ablank∙100 where Acontrol, Aexp, and Ablank are the mean absorbance value (6 replicates) of the control group (cells without pollutant), experimental group, and blank group (only cell culture medium), respectively. Five independent assays were carried out with the same conditions. The results have been subsequently used for the design of the biotransformation experiment.
(§2) Cell viability of each concentration was estimated by using Eq. (1) according to the absorbance values obtained in the MTT assay. The dose–response values were fitted by Origin Pro 2021 with a polynomial equation (shown in Fig. 3) from which the LC value was estimated. LC50 (50% viability) and LC30 (70% viability) were estimated by the polynomial fitting of the mean cell viability data obtained from three independent experiments. Cell viability in HepG2 decreased by 30% at 22 mg·L^−1 PHE and 38 mg·L^−1 BDE-47 and up to 50% at 38 mg·L^−1 PHE and 46 mg·L^−1 BDE-47. […] The calculated LC30 values have been subsequently used for the design of the biotransformation experiments.

MTT cell viability assay = assay type: cell-based; conditions: human; HepG2, 48 h of exposure, MTT, polynomial fitting; read-out: LC50 (50% viability)
Method: as §1, §2

[5] = cited from earlier work
[6] = HepG2 exposed to 15 mg·L^−1 PHE, 48 h, metabolites
[7] = HepG2 exposed to 20 mg·L^−1 BDE-47, 48 h, metabolites
[8] = HepG2 exposed to 20 mg·L^−1 BDE-47, 48 h, parent compound

Question: With Oc1cccc2c1ccc1ccccc12 [1-OH-PHE] as the molecule, how does the “Biotransformation ratio between metabolites and PHE, cells” value (HepG2 cells [1]; 48 h) read?
Answer: 0.01

Question: And the “Biotransformation ratio between metabolites and PHE, medium” value (HepG2 cells [1]; 48 h)?
Answer: 0.22

Question: And the “Concentration in cells, samples (n = 3)” value (HepG2 cells [1]; [6])?
Answer: 72 ± 27 ng/g

Question: And the “Concentration in medium, samples” value (HepG2 cells [1]; [6])?
Answer: 7.7 ± 0.9 ng/mL

Question: For Oc1ccc2c(ccc3ccccc32)c1 [2-OH-PHE], which “Biotransformation ratio between metabolites and PHE, cells” value (HepG2 cells [1]; 48 h) is on record?
Answer: 0.06

Question: What about the “Biotransformation ratio between metabolites and PHE, medium” value (HepG2 cells [1]; 48 h) of the same molecule?
Answer: 0.15

Question: What about the “Concentration in cells, samples (n = 3)” value (HepG2 cells [1]; [6]) of the same molecule?
Answer: 284 ± 92 ng/g

Question: What about the “Concentration in medium, samples” value (HepG2 cells [1]; [6]) of the same molecule?
Answer: 5.2 ± 0.9 ng/mL

Question: Which “Concentration in cells, samples” value (HepG2 cells [1]; [7]) does the source give for Oc1cc(Br)ccc1Oc1ccc(Br)cc1Br [2’-OH-BDE-28] here?
Answer: 0.11 ± 0.09 ng/g

Question: What about the “Concentration in medium, samples” value (HepG2 cells [1]; [7]) of the same molecule?
Answer: 3.2 ± 0.2 ng/mL

Question: For COc1c(Br)ccc(Oc2ccc(Br)cc2Br)c1Br [3-MeO-BDE-47], which “metabolite detection after exposure (in words)” value (HepG2 cells [1]; HepG2 exposed to 20 mg·L^−1 BDE-47, 48 h) is on record?
Answer: No quantifiable amounts

Question: What does the source list for Oc1c(Br)ccc(Oc2ccc(Br)cc2Br)c1Br [3-OH-BDE-47]?
Answer: Biotransformation ratio between metabolites and BDE-47, cells (HepG2 cells [1]): 0.01; Biotransformation ratio between metabolites and BDE-47, medium (HepG2 cells [1]): 0.04; Concentration in cells, samples (HepG2 cells [1]; [7]): 0.21 ± 0.10 ng/g; Concentration in medium, samples (HepG2 cells [1]; [7]): 4.3 ± 0.2 ng/mL

Question: Which “Biotransformation ratio between metabolites and PHE, cells” value (HepG2 cells [1]; 48 h) does the source give for Oc1ccc2ccc3ccccc3c2c1 [3-OH-PHE] here?
Answer: 0.04

Question: What about the “Biotransformation ratio between metabolites and PHE, medium” value (HepG2 cells [1]; 48 h) of the same molecule?
Answer: 0.13

Question: And the “Concentration in cells, samples (n = 3)” value (HepG2 cells [1]; [6])?
Answer: 195 ± 33 ng/g

Question: What about the “Concentration in medium, samples” value (HepG2 cells [1]; [6]) of the same molecule?
Answer: 4.0 ± 0.7 ng/mL

Question: For Oc1cccc2ccc3ccccc3c12 [4-OH-PHE], which “Biotransformation ratio between metabolites and PHE, cells” value (HepG2 cells [1]; 48 h) is on record?
Answer: 0.05

Question: And the “Biotransformation ratio between metabolites and PHE, medium” value (HepG2 cells [1]; 48 h)?
Answer: 0.16

Question: And the “Concentration in cells, samples (n = 3)” value (HepG2 cells [1]; [6])?
Answer: 260 ± 85 ng/g

Question: And the “Concentration in medium, samples” value (HepG2 cells [1]; [6])?
Answer: 5 ± 1 ng/mL

Question: With COc1cc(Oc2ccc(Br)cc2Br)c(Br)cc1Br [5-MeO-BDE-47] as the molecule, how does the “Biotransformation ratio between metabolites and BDE-47, cells” value (HepG2 cells [1]) read?
Answer: 0.03

Question: And the “Biotransformation ratio between metabolites and BDE-47, medium” value (HepG2 cells [1])?
Answer: 0.01

Question: And the “Concentration in cells, samples” value (HepG2 cells [1]; [7])?
Answer: 0.12 ± 0.02 ng/g

Question: What about the “Concentration in medium, samples” value (HepG2 cells [1]; [7]) of the same molecule?
Answer: 1.2 ± 0.9 ng/mL

Question: With Oc1cc(Oc2ccc(Br)cc2Br)c(Br)cc1Br [5-OH-BDE-47] as the molecule, how does the “Biotransformation ratio between metabolites and BDE-47, cells” value (HepG2 cells [1]) read?
Answer: 0.01

Question: And the “Biotransformation ratio between metabolites and BDE-47, medium” value (HepG2 cells [1])?
Answer: 0.06

Question: And the “Concentration in cells, samples” value (HepG2 cells [1]; [7])?
Answer: 0.27 ± 0.08 ng/g

Question: And the “Concentration in medium, samples” value (HepG2 cells [1]; [7])?
Answer: 6.2 ± 0.5 ng/mL

Question: What does the source list for Brc1ccc(Oc2ccc(Br)cc2Br)cc1 [BDE-28]?
Answer: Concentration in cells, samples (HepG2 cells [1]; [7]): 18 ± 5 ng/g; Concentration in medium, samples (HepG2 cells [1]; [7]): 577 ± 92 ng/mL; Concentration in medium, t = 0 h (HepG2 cells [1]; metabolites): 662 ± 18 ng/mL; Concentration in medium, no cells (HepG2 cells [1]; metabolites): 651 ± 36 ng/mL

Question: With Brc1ccc(Oc2ccc(Br)cc2Br)c(Br)c1 [BDE-47, 2,2′,4,4′-tetrabromodiphenyl ether] as the molecule, how does the “Henry law constant (KH)” value [2] read?
Answer: 3.78 Pa·m^3·mol^−1

Question: And the “loss because of volatilization” value (HepG2 cells [3]; glass plate)?
Answer: 14%

Question: What about the “concentration absorbed by the cells” value (HepG2 cells [3]; glass plates, 48 h) of the same molecule?
Answer: 24 ± 2%

Question: And the LC50 (HepG2)?
Answer: 48.6 µg/mL (≈ 100 µM)

Question: And the CC50 (HepG2; read-out: LC50 (the source's name))?
Answer: 100 µM

Question: And the “LC30 (70% viability; cell viability decreased by 30%)” value (HepG2 cells [4])?
Answer: 38 µg/mL (≈ 78.2 µM)

Question: What about the CC50 at 48 h (MTT cell viability assay) of the same molecule?
Answer: 46 µg/mL (≈ 94.7 µM)

Question: What about the “Concentration in cells, samples” value (HepG2 cells [1]; [8]) of the same molecule?
Answer: 737000 ± 120000 ng/g

Question: What about the “Concentration in medium, samples” value (HepG2 cells [1]; [8]) of the same molecule?
Answer: 13000 ± 2000 ng/mL

Question: What about the “Concentration in medium, t = 0 h” value (HepG2 cells [1]) of the same molecule?
Answer: 16000 ± 1000 ng/mL

Question: And the “Concentration in medium, no cells” value (HepG2 cells [1])?
Answer: 14000 ± 3000 ng/mL

Question: And the “log Kow” value [5]?
Answer: 6.81

Question: For c1ccc2cc3ccccc3cc2c1 [anthracene, reference compound], which “log Kow” value ([5]; value used with the partitioning model) is on record?
Answer: 4.5
